Laboratory results as given in patent US20160046618A1, “Cyclopropyl Fused Thiazin-2-Amine Compounds as Beta-Secretase Inhibitors and Methods of Use” (AMGEN INC., priority 2014, published 2016).
Read-outs that look alike come from different tables or passages of the source.

How the values were obtained:
human recombinant BACE1 = human recombinant BACE1 (Homo sapiens (Human), UniProt P56817); assay: In vitro enzymatic BACE1 FRET assay; type: biochemical; details: read-out: IC50 IP (μM) BACE1 enzyme
Sequence of human recombinant BACE1 (P56817 46-501): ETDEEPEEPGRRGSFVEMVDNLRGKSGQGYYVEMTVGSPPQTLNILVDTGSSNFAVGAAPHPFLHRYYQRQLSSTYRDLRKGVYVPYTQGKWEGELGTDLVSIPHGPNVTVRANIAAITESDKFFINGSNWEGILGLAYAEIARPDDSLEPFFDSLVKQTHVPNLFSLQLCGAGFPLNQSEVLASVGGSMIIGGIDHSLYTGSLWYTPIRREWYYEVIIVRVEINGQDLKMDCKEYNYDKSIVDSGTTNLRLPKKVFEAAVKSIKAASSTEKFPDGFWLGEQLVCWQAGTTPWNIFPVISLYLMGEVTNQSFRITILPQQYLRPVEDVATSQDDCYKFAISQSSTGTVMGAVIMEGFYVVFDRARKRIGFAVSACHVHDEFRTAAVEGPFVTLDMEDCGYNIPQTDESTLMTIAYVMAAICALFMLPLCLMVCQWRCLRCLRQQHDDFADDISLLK
In short: (§1)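 Tris addition raises the pH to neutral to stop the reaction before fluorescence is measured at 590 nm emission with 488 nm excitation.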

human recombinant BACE2 = human recombinant BACE2 (Homo sapiens (Human), UniProt Q9Y5Z0); assay: In vitro enzymatic BACE2 FRET assay; type: biochemical; details: read-out: IC50 IP (μM) BACE2 enzyme
Sequence of human recombinant BACE2 (Q9Y5Z0 63-518): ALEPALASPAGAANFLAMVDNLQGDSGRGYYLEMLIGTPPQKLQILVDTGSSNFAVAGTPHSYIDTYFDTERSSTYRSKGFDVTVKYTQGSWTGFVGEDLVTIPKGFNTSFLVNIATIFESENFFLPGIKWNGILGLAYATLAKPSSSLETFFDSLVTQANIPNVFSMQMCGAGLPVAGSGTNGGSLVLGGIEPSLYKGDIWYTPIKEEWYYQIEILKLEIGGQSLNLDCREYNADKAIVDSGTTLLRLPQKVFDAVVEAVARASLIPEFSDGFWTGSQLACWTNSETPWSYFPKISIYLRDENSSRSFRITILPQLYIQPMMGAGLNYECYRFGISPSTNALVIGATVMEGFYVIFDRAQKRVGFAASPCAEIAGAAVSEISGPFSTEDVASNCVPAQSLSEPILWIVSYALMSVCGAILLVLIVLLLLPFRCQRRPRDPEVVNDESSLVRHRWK
In short: as §1

[1] = tested on: Aβ40 in conditioned medium of cells stably expressing Amyloid Precursor Protein (APP); assay: In vitro BACE-1 cell-based assay (Aβ40 sandwich ELISA); details: read-out: IC50 IP (μM) BACE1 cell
In short: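 Read-out: time-resolved fluorescence (Streptavidin-Europium) of Aβ40 captured by pAb40 and detected with biotinylated 6E10 from supernatants of APP-stable cells. Cells were exposed to compound for 24 h, 10-point dose response, top dose 100 μM or 10 μM, 0.1% DMSO. IC50 fitted to percent of control.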

Recombinant Cat D = Recombinant Cat D (Homo sapiens (Human), UniProt P07339); assay: In vitro enzymatic Cathepsin D (Cat D) FRET assay; type: biochemical; details: read-out: IC50 IP (μM) CatD
Sequence of Recombinant Cat D (P07339 65-412): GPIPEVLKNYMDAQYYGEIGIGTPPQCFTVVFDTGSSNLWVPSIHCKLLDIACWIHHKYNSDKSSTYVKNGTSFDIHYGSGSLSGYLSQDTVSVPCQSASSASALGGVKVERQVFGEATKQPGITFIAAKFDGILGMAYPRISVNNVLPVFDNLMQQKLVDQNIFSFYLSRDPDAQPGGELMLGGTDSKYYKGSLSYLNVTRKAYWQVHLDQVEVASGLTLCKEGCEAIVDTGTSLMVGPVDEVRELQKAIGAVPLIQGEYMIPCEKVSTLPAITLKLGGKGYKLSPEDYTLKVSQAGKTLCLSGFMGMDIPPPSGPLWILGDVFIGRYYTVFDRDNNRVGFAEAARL
In short: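 Recombinant Cat D expressed in CHO cells, assayed in 0.05 M citrate pH 3.5 with 5 mM CHAPS and 10% DMSO final. Reaction started with 20 nM FRET peptide substrate, incubated one hour, then stopped by Tris buffer to neutral pH; fluorescence read at ex 500/em 580 nm.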

Aβ 40 in rat CSF = assay: In vivo inhibition of beta-secretase: Aβ40 reduction in rat CSF; details: 10 mpk, after 4 h
In short: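 Male Sprague Dawley rats (200 g) dosed orally in 2% HPMC, 1% Tween80, pH 2.2, at 3, 10 or 30 mg/kg; CSF and brain taken 4 h later. Brain homogenate centrifuged at 355,000 g; Aβ40 measured by ECL sandwich ELISA (4G8 capture, Abeta40 C-terminal Fab detection), as % reduction versus vehicle controls.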

Aβ 40 in rat brain = assay: In vivo inhibition of beta-secretase: Aβ40 reduction in rat brain; details: 10 mpk, after 4 h
In short: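 Rats were dosed by oral gavage at up to 100 mg/kg in 2% HPMC, 1% Tween80, pH 2.2, with vehicle-only controls. Supernatant Aβ40 was measured by ECL sandwich ELISA with biotinylated-4G8 capture and C-terminal Fab40 detection.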

Aβ in lumbar CSF = details: oral dosing of 30 or 90 mg; cited from earlier work
[2] = healthy volunteers; cited from earlier work
[3] = tested on: pigment epithelium of the rat's eye; details: higher compound dose given for three months; cited from earlier work
[4] = cited from earlier work
CSF Aβ40 = details: healthy individuals, 36 h post-dose, cited from earlier work
[5] = phase 1, healthy individuals; cited from earlier work

Row | IC50 (human recombinant BACE1) [µM] | IC50 (human recombinant BACE2) [µM] | IC50 [1] [µM] | IC50 (Recombinant Cat D) [µM] | Structure (SMILES) | % Aβ 40 reduction in rat CSF at 10 mpk (Aβ 40 in rat CSF) [%] | % Aβ 40 reduction in rat brain at 10 mpk (Aβ 40 in rat brain) [%] | further results
1 | 0.000527 | 0.268 | 0.0101 | 260 | CC(C)NC(=O)[C@]12C[C@H]1[C@@](C)(c1cc(NC(=O)c3cnc(OCC(F)(F)F)cn3)ccc1F)N=C(N)S2 [Example 976, (1S,5S,6S)-3-amino-5-(2-fluoro-5-(5-(2,2,2-trifluoroethoxy)pyrazine-2-carboxamido)phenyl)-N-isopropyl-5-methyl-2-thia-4-azabicyclo[4.1.0]hept-3-ene-1-carboxamide] | 36 | 16 | 
2 | 0.000918 | 0.0808 | 0.0116 | 776 | COC[C@]12C[C@H]1[C@@](C)(c1cc(NC(=O)c3cnc(OCC4CC4)cn3)cc(F)c1F)N=C(N)S2 [Example 1021, N-(3-((1S,5S,6S)-3-amino-1-(methoxymethyl)-5-methyl-2-thia-4-azabicyclo[4.1.0]hept-3-en-5-yl)-4,5-difluorophenyl)-5-(cyclopropylmethoxy)-2-pyrazinecarboxamide] | 44 | 25 | 
3 | 0.000941 | 0.171 | 0.00251 | 725 | Cc1noc(COc2cnc(C(=O)Nc3ccc(F)c([C@@]4(C)N=C(N)S[C@@]5(C(F)F)C[C@@H]45)c3)cn2)n1 [Example 1039, N-(3-((1S,5S,6S)-3-amino-1-(difluoromethyl)-5-methyl-2-thia-4-azabicyclo[4.1.0]hept-3-en-5-yl)-4-fluorophenyl)-5-((3-methyl-1,2,4-oxadiazol-5-yl)metnoxy)-2-pyrazinecarboxamide] | 13 | 16 | 
4 |  |  |  |  | C[C@@]1(c2cc(-c3cncnc3)c(F)cc2F)CCSC(N)=N1 [LY2811376, (S)-4-(2,4-difluoro-5-pyrimidin-5-yl-phenyl)-4-methyl-5,6-dihydro-4H-[1,3]thiazin-2-ylamine] |  |  | Aβ reductions in lumbar CSF (Aβ in lumbar CSF): Prominent and long-lasting Aβ reductions; safety and tolerability [2]: safe and well tolerated
5 |  |  |  |  | C[C@@]1(c2cc(-c3cncnc3)c(F)cc2F)CCSC(N)=N1 [LY 2811376] |  |  | retinal toxicity finding in rat toxicology studies [3]: damaged the pigment epithelium of the rat's eye; eye assessments of people from the Ph I dosing trial [4]: did not show any abnormalities
6 |  |  |  |  | CN1C(=N)N[C@](C)(c2cc(NC(=O)c3ccc(F)cn3)ccc2F)CS1(=O)=O [MK-8931] |  |  | reduction of CSF Aβ40 concentrations (CSF Aβ40; single dose of 100 mg): 75%; reduction of CSF Aβ40 concentrations (CSF Aβ40; single dose of 550 mg): 92%; tolerability [5]: generally well tolerated
